{
  "source": "paper PMC7203344",
  "about": "“Sirtuin 1 Inhibiting Thiocyanates (S1th)—A New Class of Isotype Selective Inhibitors of NAD^+ Dependent Lysine Deacetylases” (Frontiers in Oncology, 2020)",
  "key": {"Sirt1": {"biological_target": "T1, Sirt1 (Homo sapiens, UniProt Q96EB6)", "T1 construct": "made in house; host or cells: E. coli BL21 Star (DE3)", "T1 sequence (Q96EB6 134-747)": "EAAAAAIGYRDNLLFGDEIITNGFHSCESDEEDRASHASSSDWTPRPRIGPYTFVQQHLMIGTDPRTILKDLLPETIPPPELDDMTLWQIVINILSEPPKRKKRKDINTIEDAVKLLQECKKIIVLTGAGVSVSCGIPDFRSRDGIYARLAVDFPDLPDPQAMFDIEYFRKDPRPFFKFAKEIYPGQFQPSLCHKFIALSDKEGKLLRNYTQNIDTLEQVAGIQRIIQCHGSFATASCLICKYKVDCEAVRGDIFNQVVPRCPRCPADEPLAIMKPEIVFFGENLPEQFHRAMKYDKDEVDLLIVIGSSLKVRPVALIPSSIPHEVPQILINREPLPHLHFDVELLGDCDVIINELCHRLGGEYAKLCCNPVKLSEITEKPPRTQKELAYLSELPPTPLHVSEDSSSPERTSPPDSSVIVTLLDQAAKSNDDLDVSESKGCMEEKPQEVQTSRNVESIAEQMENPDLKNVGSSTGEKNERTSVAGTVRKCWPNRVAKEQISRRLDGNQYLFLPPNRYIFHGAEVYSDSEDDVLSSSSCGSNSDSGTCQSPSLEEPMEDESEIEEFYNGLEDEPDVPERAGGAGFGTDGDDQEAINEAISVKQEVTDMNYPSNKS", "assay": "Fluorescent thermal shift assay (FTSA), Sirt1", "assay_type": "binding", "protocol": "In a 96-well plate (Hard-Shell® PCR-plates, 96-well, thin-wall, BioRAD, USA) 14 μL Sirt1_134−747 in assay buffer (0.3 mg/mL final assay concentration, 50 mM Tris/HCl, 137 mM NaCl, 2.7 mM KCl, 1 mM MgCL2, pH 8.0) were mixed with 1 μL inhibitor in DMSO (100 μM) or DMSO [final assay concentration 5% (v/v)] as a control and 5 μL SyproOrange (1:100 in assay buffer). The fluorescence intensity was monitored during a constant increase of temperature from 20 to 95°C, 1 K per 20 s, using a real-time-PCR-machine (C1000 TouchTM Thermal Cycler, CFX96TM Real-Time System, BioRAD, USA). Melting temperatures were calculated via GraphPad Prism according to a published procedure ([60])."}, "[1]": {"tested_on": "γH2AX/H2AX levels in MEF cells", "assay": "γH2AX level determination by western blot", "assay_type": "cell-based, mouse", "protocol": "Sirt1 WT and KO MEFS cells were treated with 10 μM EX-527, 12 μM S1th 13 (6), 20 μM S1th 12 (5), 30 μM S1th 10 (7) and 30 μM SirReal2 [Sirt2 inhibitor, synthesized according to ([62])] for 48 h. Oxidative stress was induced using 10 μM Camptothecin 2 h. Whole-cell extracts were performed according to the Dignam protocol ([63]). Primary antibodies used for the western blot were anti-H2AX and anti-γH2AX (ab11175 and ab2893 resp., Abcam, UK). Densiometric analysis of the western blots was performed with Quantity One software (Bio-Rad Laboratories, Inc., USA)."}, "HeLa cells [2]": {"tested_on": "HeLa cells", "assay": "Cell proliferation assay with HeLa cells", "assay_type": "cell-based, human", "conditions": "EX-527 20 μM, S1th 13 12 μM, S1th 12 20 μM, S1th 10 30 μM; up to 120 h", "protocol": "(§1) 1.5 × 10^4 cells/well were seeded in 24-well plates and grown in DMEM 10% in presence of DMSO, 20 μM EX-527, 12 μM S1th 13, 20 μM S1th 12, or 30 μM S1th 10. The growth media containing the drugs was replaced every 48 h. Cells were collected and counted at the indicated times starting 24 h after seeding (0, 24, 48, 72, 96, and 120 h). The experiment was performed twice in duplicates."}, "HeLa cells [3]": {"tested_on": "HeLa cells", "assay": "Wound healing assay with HeLa cells", "assay_type": "cell-based, human", "protocol": "For wound healing assay 6 × 10^5 cells per well were seeded in 6-well plates and grown for 24 h in DMEM containing 10% FBS. After 24 h, a lineal gap between cells was created in the middle of the plate by scratching the cell monolayer with a 1 mL pipette tip in the same position in each well. Once the scratching is done, plates were washed twice with PBS and then grown in DMEM containing 1% FBS and the drugs in the same concentrations as for the proliferation assay. As described previously, the growth media 1% FBS containing the drugs was replaced every 48 h. Images were acquired in an Optimal microscope (Leica microscopes, DE) using Leica Application Suite X (LAS X) every 24 h (0, 24, 48, and 72 h) until the gap closed. The quantification of the area of the gap at the indicated times was performed with Image J-MRI Wound Healing Tool. The experiment was performed only once."}, "HeLa cells [4]": {"tested_on": "HeLa cells", "assay": "Colony forming assay with HeLa cells", "assay_type": "cell-based, human", "conditions": "7–10 days; concentrations as in proliferation assay", "protocol": "(§2) For colony assays, 50 cells per well were seeded in 6-well plates and grown in the same conditions with the same drug concentrations as for the proliferation assays. In this case, the growth media containing the drugs was replaced every 48 h. After 7–10 days, when isolated colonies were formed, wells were washed with PBS, and cells were fixed with cold methanol for 5 min at RT. Cells were stained with crystal violet for 10 min at RT and washed with H2O. Images were acquired using iBright (Thermo Fisher Scientific, MA, USA). For quantification, cells of each well were resuspended in 10% glacial acetic acid to dissolve crystal violet whose levels were monitored by measuring absorbance at 590 nm. The experiment was performed in duplicates."}, "[5]": {"tested_on": "H3K9ac and p53K382ac in HeLa cells", "assay": "Analysis of acetylation status in HeLa cells by western blotting", "assay_type": "cell-based, human", "conditions": "48 h, concentrations as in proliferation assay", "protocol": "5 × 10^4 cells were plated in 6-well plates and grown with the conditions and drug concentrations as described for the proliferation assay. Cells were harvested at 48 h and resuspendend in protein loading buffer. After sonication the samples were centrifuged at 14,000 rpm in an Eppendorf microcentrifuge (Eppendorf, DE) and the supernatants were analyzed by western-blot. The following antibodies were used: histone H3 (Cell Signaling #9715), histone H3K9ac (Cell Signaling # C5B11), GAPDH (Cell Signaling #D16H11), p53 (ThermoFisher #PA527822), and p53K382ac (Abcam 75754). Quantification was carried out using imageJ."}, "MCF7 cells [6]": {"tested_on": "MCF7 cells", "assay": "Cell proliferation assay with MCF7 cells", "assay_type": "cell-based, human", "conditions": "concentrations as for HeLa", "protocol": "as §1"}, "MCF7 cells [7]": {"tested_on": "MCF7 cells", "assay": "Colony forming assay with MCF7 cells", "assay_type": "cell-based, human", "conditions": "concentrations as for HeLa", "protocol": "as §2"}},
  "note": "“Also recorded” adds a separate entry of the source.",
  "data": [
    {"smiles": "NC(=O)C1CCCc2c1[nH]c1ccc(Cl)cc21", "note": "(stereo not drawn) [EX-527, reference compound]", "values": [
      {"measurement": "effect on Tm of Sirt1 (in words)", "setting": "Sirt1", "result": "barely effected; also recorded: very small shift or no shift at all"},
      {"measurement": "γH2AX/H2AX levels without Camptothecin", "setting": "[1]; 48 h, EX-527 10 μM, S1th 10 30 μM, S1th 12 20 μM, S1th 13 12 μM, SirReal2 30 μM", "result": "decreased"},
      {"measurement": "γH2AX/H2AX levels after addition of Camptothecin", "setting": "[1]; Camptothecin 10 μM 2 h, same inhibitor concentrations", "result": "strong decrease"},
      {"measurement": "cell proliferation of HeLa cells", "setting": "HeLa cells [2]", "result": "significantly decreased cell proliferation"},
      {"measurement": "migration of HeLa cells (wound healing), 24 h", "setting": "HeLa cells [3]; 24 h, concentrations as in proliferation assay, performed once", "result": "failed to impair migration"},
      {"measurement": "wound healing of HeLa cells, 72 h", "setting": "HeLa cells [3]; 72 h", "result": "mild effect on wound healing"},
      {"measurement": "colony forming of HeLa cells", "setting": "HeLa cells [4]", "result": "completely suppressed colony forming"},
      {"measurement": "H3K9 acetylation in HeLa cells", "setting": "[5]", "result": "no hyperacetylation"},
      {"measurement": "p53K382 acetylation in HeLa cells", "setting": "[5]", "result": "increased acetylation levels"},
      {"measurement": "H3K9 acetylation in HeLa cells", "setting": "[5]; listed as 1", "result": "did not show clear hyperacetylation"},
      {"measurement": "cell proliferation of MCF7 cells", "setting": "MCF7 cells [6]", "result": "only have a mild effect"},
      {"measurement": "colony forming capabilities of MCF7 cells", "setting": "MCF7 cells [7]", "result": "significantly decreased"}
    ]}
  ]
}
